Assay results published in paper PMC8356711 (Research in Pharmaceutical Sciences, 2021).
Entries after “also recorded” stand apart in the source; their conditions may differ.

target: T1, mushroom tyrosinase (Agaricus bisporus, UniProt C7FF04); assay: biochemical; conditions: not given
T1 sequence (C7FF04 1-392): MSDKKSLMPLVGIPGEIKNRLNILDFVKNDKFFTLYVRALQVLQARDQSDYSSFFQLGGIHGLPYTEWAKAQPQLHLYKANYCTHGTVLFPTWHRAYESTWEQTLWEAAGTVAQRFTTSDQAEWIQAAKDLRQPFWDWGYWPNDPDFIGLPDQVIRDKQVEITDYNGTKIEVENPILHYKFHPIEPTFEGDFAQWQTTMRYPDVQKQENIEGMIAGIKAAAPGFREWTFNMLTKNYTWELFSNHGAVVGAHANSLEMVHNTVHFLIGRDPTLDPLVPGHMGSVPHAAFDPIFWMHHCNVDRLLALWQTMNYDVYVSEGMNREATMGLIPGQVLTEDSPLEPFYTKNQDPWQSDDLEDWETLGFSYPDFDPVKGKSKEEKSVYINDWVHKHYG

Row | Structure (SMILES) | IC50 [µM]
1 | COc1ccc(/C=C2\CCc3cc(O)ccc3C2=O)cc1 [C1, (E)-6-hydroxy-2-(4-methoxybenzylidene)-3,4-dihydronaphthalen-1(2H)-one] | 17.6 ± 1.1
2 | COc1cc(/C=C2\CCc3cc(O)ccc3C2=O)cc(OC)c1OC [C2, (E) - 6-hydroxy - 2-(3,4,5-trimethoxy-benzylidene)-3,4-dihydronaphthalen-1(2H)-one] | 8.8 ± 1.8
3 | COc1ccccc1/C=C1\CCc2cc(O)ccc2C1=O [C3, (E)-6-hydroxy-2-(2-methoxybenzylidene)-3,4-dihydronaphthalen-1(2H)-one] | 11.1 ± 2.5
4 | CCOc1cc(/C=C2\CCc3cc(O)ccc3C2=O)ccc1O [C4, (E)-2-(3-ethoxy-4-hydroxybenzylidene)-6-hydroxy-3,4-dihydronaphthalen-1(2H)-one] | 21.4 ± 3.1
5 | O=C1/C(=C/c2ccc(O)cc2)CCc2cc(O)ccc21 [C5, (E)-6-hydroxy-2-(4-hydroxybenzylidene)-3,4-dihydronaphthalen-1(2H)-one] | 48.6 ± 2.9
6 | COc1ccc(/C=C2\CCc3cc(O)ccc3C2=O)cc1OC [C6, (E)-2-(3,4-dimethoxybenzylidene)-6-hydroxy-3,4-dihydronaphthalen-1(2H)-one] | 17.6 ± 2.4
7 | O=C1/C(=C/c2ccc(Cl)cc2)CCc2cc(O)ccc21 [C7, (E)-2-(4-chlorobenzylidene)-6-hydroxy-3,4-dihydronaphthalen-1(2H)-one] | 22.4 ± 3.1
8 | COc1cc(/C=C2\CCc3cc(O)ccc3C2=O)cc(OC)c1O [C9, (E)-6-hydroxy-2-(4-hydroxy-3,5-dimethoxy-benzylidene)-3,4-dihydronaphthalen-1(2H)-one] | > 50

target: T1, mushroom tyrosinase; assay: not given; conditions: Lineweaver-Burk plot, L-DOPA substrate

Row | Structure (SMILES) | inhibition type
9 | COc1cc(/C=C2\CCc3cc(O)ccc3C2=O)cc(OC)c1OC [C2, (E) - 6-hydroxy - 2-(3,4,5-trimethoxy-benzylidene)-3,4-dihydronaphthalen-1(2H)-one] | competitively; also recorded: competitive tyrosinase inhibitor
